In the supplement of paper PMC11208160:

Assay: recombinant UMI read abundance after kanamycin selection (control-corrected) (log10(CPM+1)); higher = more efficient recombination; extreme values may be limits of the assay; sequences stand for … in AGTGCAGAGAAAATCGGCCAGTTTTCTCTGCCTGCAGTCCGCATGCCGTGGGACCCCTTGGGTTCTAACCTGTTGCCTAGATTTATGCAGCGGACTGCCTTTCTCCCAAAGTGATAAACCGG…AGGTTGGTTTCACT; site = the 11-nt donor
Procedure: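 Pooled E. coli donor-specificity screen for the IS621 bridge recombinase. Each library member carries a reprogrammed 11-nt donor and a full-length LE bridge RNA expressed in cis from the natural promoter, with a paired donor-binding loop (8-nt LDG + 4-nt RDG) and a target-binding loop fixed to T5. It is co-electroporated with a T5 target plasmid; recombinase is induced with 0.07 mM IPTG and recombinants are selected on kanamycin. UMIs are counted as CPM, averaged over two biological replicates and corrected by the unselected control. Molecule = full bridge RNA written as DNA, built from the T5 scaffold: LDG = donor specificity nt 1-8, RDG = reverse complement of nt 8-11.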
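Further: IS621 bridge recombinase in Escherichia coli cells against a fixed T5 target plasmid.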

Sequence | recombinant UMI read abundance (log10)
ACAGTATCATGGACCGGTTTTCCCGGTAATCCGTATTTGCA (site ACAGCATCTTA) | 0.00439
ACAGTATCATGGACCGGTTTTCCCGGTAATCCGTATTTGCA (site ACAGCATCTTG) | 1.64
ACAGTATCATGGACCGGTTTTCCCGGTAATCCGTATTTGCA (site ACAGCTTCTTG) | 0
ACAGTATCATGGACCGGTTTTCCCGGTAATCCGTATTTGCA (site ACAGGACCTTG) | 0
ACAGTATCATGGACCGGTTTTCCCGGTAATCCGTATTTGCA (site ACAGGATCTGG) | 0
ACAGTATCATGGACCGGTTTTCCCGGTAATCCGTATTTGCA (site ACAGGATCTTG) | 1.01
ACAGTATCATGGACCGGTTTTCCCGGTAATCCGTATTTGCA (site ACAGGATCTTT) | 0
ACAGTATCATGGACCGGTTTTCCCGGTAATCCGTATTTGCA (site ACAGGGTCTTG) | 1.17
ACAGTATCATGGACCGGTTTTCCCGGTAATCCGTATTTGCA (site ACAGTAACTAG) | 0
ACAGTATCATGGACCGGTTTTCCCGGTAATCCGTATTTGCA (site ACAGTAACTTC) | 0.0177
ACAGTATCATGGACCGGTTTTCCCGGTAATCCGTATTTGCA (site ACAGTAACTTG) | 1.55
ACAGTATCATGGACCGGTTTTCCCGGTAATCCGTATTTGCA (site ACAGTACCTGG) | 0
ACAGTATCATGGACCGGTTTTCCCGGTAATCCGTATTTGCA (site ACAGTACCTTG) | 0
ACAGTATCATGGACCGGTTTTCCCGGTAATCCGTATTTGCA (site ACAGTACCTTT) | 0.00804
ACAGTATCATGGACCGGTTTTCCCGGTAATCCGTATTTGCA (site ACAGTAGCTCG) | 0.00206
ACAGTATCATGGACCGGTTTTCCCGGTAATCCGTATTTGCA (site ACAGTAGCTTA) | 0.00334

Sequence | recombinant UMI read abundance (log10)
ACAGTATCATGGACCGGTTTTCCCGGTAATCCGTATTTGCA (site ACAGTAGCTTG) | 0.142
ACAGTATCATGGACCGGTTTTCCCGGTAATCCGTATTTGCA (site ACAGTATCTAC) | 0
ACAGTATCATGGACCGGTTTTCCCGGTAATCCGTATTTGCA (site ACAGTATCTAG) | 1.81
ACAGTATCATGGACCGGTTTTCCCGGTAATCCGTATTTGCA (site ACAGTATCTCA) | 0.878
ACAGTATCATGGACCGGTTTTCCCGGTAATCCGTATTTGCA (site ACAGTATCTCG) | 1.77
ACAGTATCATGGACCGGTTTTCCCGGTAATCCGTATTTGCA (site ACAGTATCTGG) | 2.13
ACAGTATCATGGACCGGTTTTCCCGGTAATCCGTATTTGCA (site ACAGTATCTGT) | 0.00931
ACAGTATCATGGACCGGTTTTCCCGGTAATCCGTATTTGCA (site ACAGTATCTTA) | 2.23
ACAGTATCATGGACCGGTTTTCCCGGTAATCCGTATTTGCA (site ACAGTATCTTC) | 1.17
ACAGTATCATGGACCGGTTTTCCCGGTAATCCGTATTTGCA (site ACAGTATCTTG) | 2.67
ACAGTATCATGGACCGGTTTTCCCGGTAATCCGTATTTGCA (site ACAGTATCTTT) | 2.17
ACAGTATCATGGACCGGTTTTCCCGGTAATCCGTATTTGCA (site ACAGTCACTTG) | 2.03
ACAGTATCATGGACCGGTTTTCCCGGTAATCCGTATTTGCA (site ACAGTCTCTAG) | 0
ACAGTATCATGGACCGGTTTTCCCGGTAATCCGTATTTGCA (site ACAGTCTCTTC) | 0.0179
ACAGTATCATGGACCGGTTTTCCCGGTAATCCGTATTTGCA (site ACAGTCTCTTG) | 2.06
ACAGTATCATGGACCGGTTTTCCCGGTAATCCGTATTTGCA (site ACAGTGCCTTG) | 0.121
